ChEMBL document CHEMBL1201862, “PubChem BioAssay data set” (2004)
Active and inactive are the calls of the source. Rule as the data show it, for most assays here: actives have a measured EC50 and inactives only a lower limit.

How the values were obtained:
[1] = NIH-3T3 fibroblast cytotoxicity, dose response, cytotoxicity control, cell-based, fluorescence, Alamar Blue, secondary assay (AID 2327); type: functional;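 also: NIH-3T3 mouse fibroblasts cultured with fluconazole at 8 µg/mL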
[2] = C. albicans growth with fluconazole, confirmation, fluorescence, retest (AID 2467); type: functional, cell-based
[3] = biological target: T1, Serine/threonine-protein phosphatase (Candida dubliniensis (strain CD36 / CBS 7987 / NCPF 3949 / NRRLY-17841) (Yeast), UniProt B9W6M3); assay: calcineurin pathway inhibitors in yeast reporter, dose response, S. cerevisiae, CDRE-lacZ, luminescence, secondary (AID 2388); type: functional, cell-based;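 also: yeast reporter cells carrying a calcineurin-responsive lacZ construct stimulated with calcium chloride; luminescent beta-galactosidase reporter signal in whole cells rather than isolated phosphatase activity; potency for inhibition where a drop in reporter signal means calcineurin blockade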
T1 sequence (B9W6M3 whole entry): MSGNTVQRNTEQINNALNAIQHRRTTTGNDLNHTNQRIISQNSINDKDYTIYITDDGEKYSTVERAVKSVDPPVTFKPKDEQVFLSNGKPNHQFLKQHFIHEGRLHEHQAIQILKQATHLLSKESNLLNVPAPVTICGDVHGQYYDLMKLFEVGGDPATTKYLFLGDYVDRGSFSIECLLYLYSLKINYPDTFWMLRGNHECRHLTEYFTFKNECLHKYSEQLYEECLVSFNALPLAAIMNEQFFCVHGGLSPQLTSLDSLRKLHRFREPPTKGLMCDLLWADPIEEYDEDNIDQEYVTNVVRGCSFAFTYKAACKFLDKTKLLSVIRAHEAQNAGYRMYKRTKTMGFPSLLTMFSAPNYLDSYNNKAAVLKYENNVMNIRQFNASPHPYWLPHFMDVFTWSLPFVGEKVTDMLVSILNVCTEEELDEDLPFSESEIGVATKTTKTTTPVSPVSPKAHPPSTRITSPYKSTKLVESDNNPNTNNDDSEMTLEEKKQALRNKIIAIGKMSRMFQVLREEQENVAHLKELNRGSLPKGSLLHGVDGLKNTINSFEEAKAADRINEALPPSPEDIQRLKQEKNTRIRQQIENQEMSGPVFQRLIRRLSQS

[4] = biological target: ATP-dependent molecular chaperone HSP82 (Candida albicans (strain WO-1) (Yeast), UniProt C4YTQ8); assay: loss of DOC-induced GRE-beta-galactosidase reporter signal, dose response, Hsp90 inhibitor project, S. cerevisiae, luminescence (AID 2400); type: functional, cell-based;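 also: beta-galactosidase luminescence from glucocorticoid response element reporter as proxy for Hsp90 function; inhibitor potency where signal loss means Hsp90 inhibition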
Chain of ATP-dependent molecular chaperone HSP82 (C4YTQ8 whole entry): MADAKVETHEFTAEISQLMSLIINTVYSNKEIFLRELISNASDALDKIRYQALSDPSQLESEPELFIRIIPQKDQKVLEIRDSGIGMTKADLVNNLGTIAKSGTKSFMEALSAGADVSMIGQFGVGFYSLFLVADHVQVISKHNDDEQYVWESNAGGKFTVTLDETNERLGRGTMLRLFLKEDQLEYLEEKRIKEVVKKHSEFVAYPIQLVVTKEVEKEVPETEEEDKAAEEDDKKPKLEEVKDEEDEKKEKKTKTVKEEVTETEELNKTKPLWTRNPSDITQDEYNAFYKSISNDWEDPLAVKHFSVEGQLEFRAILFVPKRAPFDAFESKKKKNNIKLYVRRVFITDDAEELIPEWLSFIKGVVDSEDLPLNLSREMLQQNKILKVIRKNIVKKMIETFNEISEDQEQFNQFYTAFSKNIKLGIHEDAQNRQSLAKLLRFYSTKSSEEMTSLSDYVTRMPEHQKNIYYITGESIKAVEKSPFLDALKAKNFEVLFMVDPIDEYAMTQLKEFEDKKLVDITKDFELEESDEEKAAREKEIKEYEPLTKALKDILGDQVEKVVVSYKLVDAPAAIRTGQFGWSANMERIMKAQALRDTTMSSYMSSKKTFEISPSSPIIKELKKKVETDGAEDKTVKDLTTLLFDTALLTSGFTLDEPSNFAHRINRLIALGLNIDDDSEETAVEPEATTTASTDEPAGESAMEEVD

[5] = system: Streptococcus sp. 'group A'; assay: growth inhibition of control SK(-) GAS strain, dose response, counter-screen for streptokinase expression inhibitor project, luminescence, kanamycin, BacTiterGlo, confirmation (AID 1900); type: functional, organism-based
Beta-galactosidase = Beta-galactosidase (Escherichia coli, UniProt Q8VNN2); assay: PubChem AID 485352; type: functional
Chain of Beta-galactosidase (Q8VNN2 whole entry): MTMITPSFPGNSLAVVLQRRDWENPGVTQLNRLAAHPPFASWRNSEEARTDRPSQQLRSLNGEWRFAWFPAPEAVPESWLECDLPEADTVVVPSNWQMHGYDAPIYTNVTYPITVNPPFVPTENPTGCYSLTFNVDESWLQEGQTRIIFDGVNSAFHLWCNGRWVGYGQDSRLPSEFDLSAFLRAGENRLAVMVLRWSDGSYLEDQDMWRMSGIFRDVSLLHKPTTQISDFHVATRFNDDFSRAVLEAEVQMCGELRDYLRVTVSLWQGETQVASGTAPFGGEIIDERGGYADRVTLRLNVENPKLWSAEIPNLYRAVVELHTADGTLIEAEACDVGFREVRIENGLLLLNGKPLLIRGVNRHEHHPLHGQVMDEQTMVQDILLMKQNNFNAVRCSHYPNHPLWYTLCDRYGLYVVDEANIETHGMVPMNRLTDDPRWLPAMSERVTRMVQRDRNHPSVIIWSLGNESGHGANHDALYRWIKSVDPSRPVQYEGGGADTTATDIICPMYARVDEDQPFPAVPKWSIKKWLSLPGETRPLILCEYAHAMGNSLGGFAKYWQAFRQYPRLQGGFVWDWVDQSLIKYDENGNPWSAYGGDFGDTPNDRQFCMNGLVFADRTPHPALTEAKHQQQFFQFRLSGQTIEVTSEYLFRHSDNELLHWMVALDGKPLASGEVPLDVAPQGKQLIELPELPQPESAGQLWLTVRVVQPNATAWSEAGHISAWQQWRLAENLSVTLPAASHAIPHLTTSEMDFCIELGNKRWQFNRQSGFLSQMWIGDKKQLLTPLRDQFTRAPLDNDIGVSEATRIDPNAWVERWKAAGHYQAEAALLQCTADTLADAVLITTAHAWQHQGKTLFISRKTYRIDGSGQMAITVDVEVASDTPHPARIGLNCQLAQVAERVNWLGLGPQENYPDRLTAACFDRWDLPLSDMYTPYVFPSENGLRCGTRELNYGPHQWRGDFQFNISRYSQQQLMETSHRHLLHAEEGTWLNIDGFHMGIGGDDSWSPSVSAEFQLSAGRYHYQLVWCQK

Streptokinase A = biological target: T2, Streptokinase A (Streptococcus pyogenes serotype M1, UniProt P10520); assay: S. pyogenes streptokinase expression inhibitors, potency, dose response, plasminogen activation absorbance, OD405 (AID 1914); type: functional, Streptococcus pyogenes M1 GAS;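 also: secreted streptokinase activity via plasminogen activation per viability signal from cell pellet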
T2 sequence (P10520 whole entry): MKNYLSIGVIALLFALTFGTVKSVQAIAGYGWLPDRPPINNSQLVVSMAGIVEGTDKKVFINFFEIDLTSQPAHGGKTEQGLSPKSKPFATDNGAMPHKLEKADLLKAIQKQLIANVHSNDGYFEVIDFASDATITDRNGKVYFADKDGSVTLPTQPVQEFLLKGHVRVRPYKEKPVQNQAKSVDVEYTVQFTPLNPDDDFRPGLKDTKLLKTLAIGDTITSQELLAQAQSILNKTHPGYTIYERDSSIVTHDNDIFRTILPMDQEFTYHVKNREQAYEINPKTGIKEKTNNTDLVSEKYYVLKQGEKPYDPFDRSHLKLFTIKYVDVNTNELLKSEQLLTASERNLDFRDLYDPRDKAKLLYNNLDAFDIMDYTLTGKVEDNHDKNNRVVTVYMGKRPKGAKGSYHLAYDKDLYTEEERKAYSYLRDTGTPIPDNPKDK

[6] = inhibitors of intracellular T. cruzi replication, confirmation, NIH3T3 host cells, beta-gal luminescence (AID 2044); type: functional, cell-based;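 also: intracellular parasites grown in NIH/3T3 mouse fibroblasts as host cells; luminescent beta-galactosidase reporter signal from transgenic T. cruzi replicating inside host cells; inhibitors lower the luminescence signal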
[7] = biological target: T3, Type-1 angiotensin II receptor (Homo sapiens, UniProt P30556); assay: AT1 receptor antagonists, dose response, selectivity assay for APJ receptor antagonist project, cell-based, uHTS hits (AID 463214); type: functional;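 also: antagonist potency against angiotensin II stimulated AT1 response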
T3 sequence (P30556 whole entry): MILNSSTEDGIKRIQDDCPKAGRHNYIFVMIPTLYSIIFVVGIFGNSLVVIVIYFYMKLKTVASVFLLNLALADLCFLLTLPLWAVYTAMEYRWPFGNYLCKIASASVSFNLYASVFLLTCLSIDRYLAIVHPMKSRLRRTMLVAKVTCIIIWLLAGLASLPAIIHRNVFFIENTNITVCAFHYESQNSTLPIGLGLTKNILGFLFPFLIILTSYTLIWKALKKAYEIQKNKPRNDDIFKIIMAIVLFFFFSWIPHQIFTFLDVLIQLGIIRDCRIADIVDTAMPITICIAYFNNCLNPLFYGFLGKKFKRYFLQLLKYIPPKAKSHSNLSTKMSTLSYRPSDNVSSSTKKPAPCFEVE

[8] = cytotoxicity toward NIH3T3 fibroblasts, dose response, counter-screen, cell-based, ATP luminescence, mouse fibroblasts (AID 2010); type: functional;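 also: cells exposed to compound for about 90 hours before reading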
Streptococcus = assay: Group A Streptococcus viability loss, dose response, counter-screen for streptokinase expression inhibitor project, luminescence, BacTiterGlo (AID 1915); type: functional, organism-based;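 also: potency for reduction of bacterial viability or growth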
[9] = biological target: T4, Heat shock factor protein 1 (Mus musculus, UniProt P38532); assay: HSF1 potentiators in luciferase reporter cells, confirmation, cell-based, NIH3T3, luminescence, dose retest (AID 435004); type: functional;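 also: stress induced by proteasome inhibitor MG132 added 30 min after compound; luciferase reporter driven by HSF1 response element in NIH3T3 cells; actives raise luminescence as potentiators of the MG132 stress response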
T4 sequence (P38532 whole entry): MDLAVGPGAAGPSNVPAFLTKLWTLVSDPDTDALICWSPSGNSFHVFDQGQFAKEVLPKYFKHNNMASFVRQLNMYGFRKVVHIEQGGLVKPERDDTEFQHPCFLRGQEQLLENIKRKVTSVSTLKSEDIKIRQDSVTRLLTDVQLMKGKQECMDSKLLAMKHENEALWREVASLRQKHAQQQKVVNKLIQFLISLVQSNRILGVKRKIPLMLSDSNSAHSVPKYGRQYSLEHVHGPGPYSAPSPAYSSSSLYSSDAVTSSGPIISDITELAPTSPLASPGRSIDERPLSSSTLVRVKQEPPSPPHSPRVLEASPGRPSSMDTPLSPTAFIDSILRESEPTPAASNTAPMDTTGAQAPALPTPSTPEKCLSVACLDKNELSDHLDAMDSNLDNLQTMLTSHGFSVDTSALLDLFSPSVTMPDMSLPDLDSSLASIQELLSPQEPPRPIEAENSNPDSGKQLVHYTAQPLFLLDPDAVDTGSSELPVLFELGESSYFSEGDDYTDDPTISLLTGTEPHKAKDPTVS

H9c2 = assay: cells; type: functional, cell-based; conditions: Rattus norvegicus, H9c2, Myocardium;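 also: confirmatory concentration-response retest of ultra-high-throughput screening hits for modulation of myocardial damage; cell death induced by hydrogen peroxide oxidative stress; compound pretreatment for 60 min then peroxide exposure for 2 h; potency is for protecting the cells against peroxide damage rather than for killing them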
[10] = Shn3 3'UTR reporter inhibitors, dose response, cell-based, Clone20 osteoblasts, firefly luciferase, cherry-picked (AID 624132); type: functional;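 also: firefly luciferase luminescence from reporter carrying the Shn3 3'UTR in osteoblasts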
[11] = HepG2 cell cytotoxicity, dose response, cytotoxicity control for Shn3 inhibitor project, CellTiter-Glo, cherry-picked (AID 624134); type: functional, cell-based
Hexokinase-1 = biological target: T5, Hexokinase-1 (Homo sapiens, UniProt P19367); assay: SAR analysis of small molecule inhibitors of hexokinase domain containing I (HKDC1) in the hexokinase 1 selectivity assay. [Related pubchem assays (depositor defined):AID493160, AID493190]; type: functional
T5 sequence (P19367 whole entry): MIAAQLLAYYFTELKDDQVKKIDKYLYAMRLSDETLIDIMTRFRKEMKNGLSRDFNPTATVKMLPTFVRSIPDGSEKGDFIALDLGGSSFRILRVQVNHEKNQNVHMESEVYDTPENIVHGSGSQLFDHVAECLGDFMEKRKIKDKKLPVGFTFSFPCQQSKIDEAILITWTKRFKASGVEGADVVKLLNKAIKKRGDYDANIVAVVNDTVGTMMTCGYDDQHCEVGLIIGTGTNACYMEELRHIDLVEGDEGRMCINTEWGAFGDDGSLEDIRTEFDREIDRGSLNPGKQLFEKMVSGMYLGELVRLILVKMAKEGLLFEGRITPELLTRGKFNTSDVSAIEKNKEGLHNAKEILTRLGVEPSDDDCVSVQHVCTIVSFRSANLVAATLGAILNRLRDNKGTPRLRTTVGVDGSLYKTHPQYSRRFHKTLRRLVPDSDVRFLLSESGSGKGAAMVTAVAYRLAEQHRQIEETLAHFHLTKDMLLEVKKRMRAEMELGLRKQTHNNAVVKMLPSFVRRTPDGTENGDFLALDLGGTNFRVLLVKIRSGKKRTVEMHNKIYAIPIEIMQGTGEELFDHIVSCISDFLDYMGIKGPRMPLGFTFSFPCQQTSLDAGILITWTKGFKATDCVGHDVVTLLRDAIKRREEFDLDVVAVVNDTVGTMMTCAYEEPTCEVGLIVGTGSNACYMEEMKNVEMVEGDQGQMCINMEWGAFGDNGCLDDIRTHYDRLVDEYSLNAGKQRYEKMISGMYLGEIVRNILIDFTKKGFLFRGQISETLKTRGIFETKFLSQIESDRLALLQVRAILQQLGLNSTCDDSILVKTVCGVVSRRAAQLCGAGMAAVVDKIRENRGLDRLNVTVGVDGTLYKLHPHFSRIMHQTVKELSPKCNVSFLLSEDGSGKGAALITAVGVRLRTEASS

Hexokinase HKDC1 = biological target: T6, Hexokinase HKDC1 (Homo sapiens, UniProt Q2TB90); assay: SAR analysis of small molecule inhibitors of hexokinase domain containing I (HKDC1). [Related pubchem assays (depositor defined):AID493160, AID493190]; type: functional
T6 sequence (Q2TB90 whole entry): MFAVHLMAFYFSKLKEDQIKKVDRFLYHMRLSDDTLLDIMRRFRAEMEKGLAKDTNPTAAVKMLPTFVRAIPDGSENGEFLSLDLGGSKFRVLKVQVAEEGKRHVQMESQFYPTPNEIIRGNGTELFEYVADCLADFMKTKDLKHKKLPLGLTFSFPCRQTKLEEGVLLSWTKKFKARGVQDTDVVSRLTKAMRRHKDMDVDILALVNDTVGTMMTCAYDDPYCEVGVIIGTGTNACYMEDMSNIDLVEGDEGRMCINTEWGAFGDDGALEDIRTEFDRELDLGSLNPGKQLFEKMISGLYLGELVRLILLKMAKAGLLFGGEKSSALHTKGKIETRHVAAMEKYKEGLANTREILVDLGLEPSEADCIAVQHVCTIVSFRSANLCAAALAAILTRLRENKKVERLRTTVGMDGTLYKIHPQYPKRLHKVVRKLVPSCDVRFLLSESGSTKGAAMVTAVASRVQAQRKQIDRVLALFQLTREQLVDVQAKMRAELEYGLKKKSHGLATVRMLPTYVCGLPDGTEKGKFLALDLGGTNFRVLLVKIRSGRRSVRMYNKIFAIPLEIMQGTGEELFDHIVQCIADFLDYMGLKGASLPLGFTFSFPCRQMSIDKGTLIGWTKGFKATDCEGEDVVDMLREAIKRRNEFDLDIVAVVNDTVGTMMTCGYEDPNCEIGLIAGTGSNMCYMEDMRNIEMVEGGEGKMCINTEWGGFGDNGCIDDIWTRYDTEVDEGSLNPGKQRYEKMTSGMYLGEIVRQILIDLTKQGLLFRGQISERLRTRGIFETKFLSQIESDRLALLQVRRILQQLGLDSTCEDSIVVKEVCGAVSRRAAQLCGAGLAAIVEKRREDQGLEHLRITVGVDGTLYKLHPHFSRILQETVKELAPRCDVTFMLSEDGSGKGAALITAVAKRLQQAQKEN

Row | SMILES | EC50 [1] | EC50 [2] | EC50 [3] | EC50 [4] | IC50 (Hexokinase-1) | IC50 (Hexokinase HKDC1) | also measured
1 | O=C(Cc1ccc(Cl)cc1)NNC(=S)NC(=O)c1cccs1 | > 160 µM (inactive) | 1.43 µM (active) | > 180 µM (inactive) | 16.6 µM (active) | – | – | –
2 | COc1ccc(NS(=O)(=O)c2ccc3ccccc3c2)c2ncccc12 | 60.9 µM (active) | > 38 µM (not active) | – | – | – | – | EC50 [5]: 1.03 µM (active); EC50 (Beta-galactosidase): > 40 µM (inactive); EC50 (Streptokinase A): > 150 µM (not active); EC50 [6]: 0.688 µM (active); IC50 [7]: 23.1 µM (not active); EC50 [8]: 5.55 µM (active); EC50 (Streptococcus): 4.63 µM (active); EC50 [9]: 7.48 µM (active); IC50 (H9c2): 11.5 µM (active); AC50 [10]: 4.82 µM (active); AC50 [11]: 69.5 µM (active)
3 | O=c1c2ccccc2nc(/C=C/c2ccccn2)n1Cc1ccccc1 | – | – | – | – | > 80 µM (inactive) | > 80 µM (inactive) | –
4 | Cc1cc2nnc(SCC(=O)Nc3cccc(S(=O)(=O)N4CCCC4)c3)n2c2ccccc12 | – | – | – | – | > 80 µM (inactive) | > 80 µM (inactive) | –
5 | O=c1c2ccccc2nc(/C=C/c2ccccc2)n1Cc1ccccc1 | – | – | – | – | > 80 µM (inactive) | > 80 µM (inactive) | –
6 | O=C(CCS(=O)(=O)c1ccc(F)cc1)Nc1nc(-c2ccncc2)cs1 | 18.3 µM (inconclusive) | 1.39 µM (active) | > 180 µM (inactive) | 16.5 µM (active) | – | – | –
